Assay [1] deals with Staphylococcus aureus. The assay can be described thus: Antibiofilm activity against methicillin-resistant Staphylococcus aureus. The note with it: Staphylococcus aureus. It counts as functional, organism-based.
Assay [2] deals with Staphylococcus aureus. As to the kind of experiment: Antibiofilm activity against Staphylococcus aureus ATCC 25923 at 1.5 ug/ml relative to control. It counts as functional.
Assay [3] has as its system Staphylococcus aureus. The assay can be described thus: Antibiofilm activity against Staphylococcus aureus ATCC 29213 at 1.5 ug/ml relative to control. It counts as functional.
In assay [4] the test system is Staphylococcus epidermidis. As to the kind of experiment: Antibiofilm activity against Staphylococcus epidermidis DSM 3269 at 1.5 ug/ml relative to control. Type of assay: functional.
The test system of assay [5] is Staphylococcus epidermidis. The assay can be described thus: Antibiofilm activity against Staphylococcus epidermidis RP62A at 1.5 ug/ml relative to control. Type of assay: functional.
The subject of assay [6] is Staphylococcus aureus. The assay can be described thus: Antibiofilm activity against Staphylococcus aureus isolate 657 at 1.5 ug/ml relative to control. Type of assay: functional.
Assay [7] deals with Staphylococcus aureus. As to the kind of experiment: Antibiofilm activity against Staphylococcus aureus isolate 702 at 1.5 ug/ml relative to control. It counts as functional.
The test system of a further assay is Enterococcus faecalis. As to the kind of experiment: Antibiofilm activity against Enterococcus faecalis ATCC 29212. It counts as functional.
Assay [8] concerns Staphylococcus aureus. The assay can be described thus: Antibiofilm activity against Staphylococcus aureus BAA-1026. It counts as functional.
Another assay addresses T1, Sortase A (Staphylococcus aureus, UniProt Q9S446).
T1 sequence (Q9S446 whole entry): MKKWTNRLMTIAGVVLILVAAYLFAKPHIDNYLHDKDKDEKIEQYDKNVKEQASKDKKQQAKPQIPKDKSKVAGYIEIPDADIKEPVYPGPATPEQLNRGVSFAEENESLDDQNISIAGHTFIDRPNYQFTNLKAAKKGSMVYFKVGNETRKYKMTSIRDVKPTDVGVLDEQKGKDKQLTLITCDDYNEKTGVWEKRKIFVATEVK
The assay can be described thus: Inhibition of Staphylococcus aureus SrtA.

The text below walks through data of ChEMBL document CHEMBL4325854, “Synthetic small molecules as anti-biofilm agents in the struggle against antibiotic resistance” (Eur J Med Chem, 2019).

Turning to `CCCCc1ccc(C(=O)NCCn2cc(CCCCc3[nH]c(N)nc3-c3cnc4ccccc4c3)nn2)cc1`, the IC50 (as a rule, the concentration that gives 50% inhibition) with Staphylococcus aureus [1] turned out to be 4.2 µM.
Consider `COC(=O)Oc1c(Br)cc(Br)c2nc3ccccc3nc12`, for which the IC50 with Staphylococcus aureus [1] fell in the range of 1.4 to 2.9 µM.
On the same count and under the same terms, to `O=C(Oc1c(Br)cc(Br)c2nc3ccccc3nc12)c1ccco1` belongs 1.4 to 2.9 µM.
For `O=C(c1cc(Cl)cc(Cl)c1O)c1[nH]c(Br)c(Br)c1Br`, the Activity (with Staphylococcus aureus [2]; in the assay on Staphylococcus aureus [3]; in [4]; in [5]; with Staphylococcus aureus [6]; in the assay with Staphylococcus aureus [7]) was above 60% in each case.
For the compound `O=C(c1cc(Br)ccc1O)c1[nH]c(Br)c(Br)c1Br`, the Activity (in the assay on Staphylococcus aureus [2]; with Staphylococcus aureus [3]; in assay [4]; in [5]; in the assay on Staphylococcus aureus [6]; in the assay with Staphylococcus aureus [7]) was above 60% each time.
As to `O=C(c1cc(Cl)cc(Cl)c1O)c1[nH]c(Cl)c(Cl)c1Cl`, the Activity (with Staphylococcus aureus [2]; in the assay with Staphylococcus aureus [3]; in assay [4]; in assay [5]; in the assay on Staphylococcus aureus [6]; with Staphylococcus aureus [7]) was above 60% throughout.
In turn, `CCCCc1ccc(C(=O)NCCn2cc(CCCCc3[nH]c(N)nc3-c3ccoc3)nn2)cc1` came in with a half-inhibitory concentration (IC50) in the assay on Staphylococcus aureus [1] of 7.2 µM. That is a single-digit micromolar value.
For the compound `O=C(c1cc(Br)cc(Br)c1O)c1[nH]c(Br)c(Br)c1Br`, the Activity (in the assay with Staphylococcus aureus [2]; with Staphylococcus aureus [3]; in [4]; in assay [5]; with Staphylococcus aureus [6]; in the assay on Staphylococcus aureus [7]) was above 60% each time.
On to `O=C(c1cc(Br)ccc1O)c1[nH]c(Cl)c(Cl)c1Br`, for which the Activity (with Staphylococcus aureus [2]; in the assay with Staphylococcus aureus [3]; in [4]; in assay [5]; in the assay on Staphylococcus aureus [6]; in the assay on Staphylococcus aureus [7]) was above 60% in each case.
For the compound `Clc1ccc(-c2csc(-c3ccc(-c4csc(-c5ccccc5)n4)cc3)n2)cc1`, the MBEC in the assay on Enterococcus faecalis was 16 µg/mL; in the assay with Staphylococcus aureus [8], above 1000 µg/mL.
On the same counts, the results for `O=[N+]([O-])c1ccc(-c2csc(-c3ccc(-c4csc(-c5ccccc5)n4)cc3)n2)cc1` are 2 µg/mL and above 1000 µg/mL.
In the case of `O=C(c1cc(Br)ccc1O)c1[nH]c(Br)c(Cl)c1Br`, the Activity (in the assay with Staphylococcus aureus [2]; with Staphylococcus aureus [3]; in assay [4]; in [5]; in the assay on Staphylococcus aureus [6]; in the assay with Staphylococcus aureus [7]) was above 60% each time.
For `O=C(c1cc(Br)ccc1O)c1[nH]c(Cl)c(Br)c1Br`, the Activity (in the assay on Staphylococcus aureus [2]; with Staphylococcus aureus [3]; in [4]; in assay [5]; in the assay on Staphylococcus aureus [6]; with Staphylococcus aureus [7]) was above 60% throughout.
`CCCCCCc1ccc(NC(=O)CCn2cc(C[C@@]34CNC[C@@H]3Nc3ccccc34)nn2)cc1`: in the assay on Staphylococcus aureus [1], the IC50 stood at 3.4 µM.
Still for that read-out and setting: for `CCCCc1ccc(C(=O)NCCn2cc(CCCCc3[nH]c(N)nc3-c3ccc4c(c3)OCO4)nn2)cc1` the value was 3.7 µM; for `CCCCCCCc1ccc(NC(=O)CCn2cc(C[C@@]34CNC[C@@H]3Nc3ccccc34)nn2)cc1`, 2.8 µM; for `CCCCCCCCCCCCCCNC(=O)Cn1cc(C[C@@]23CNC[C@@H]2Nc2ccccc23)nn1`, 5.4 µM.
For the compound `CCOC(=O)/C(=N/Nc1ccccc1)C(C)=O`, the IC50 at Sortase A stood at 192 µM.
With `O=C(c1cc(Br)c(F)[nH]1)c1cc(Cl)cc(Cl)c1O`, the Activity (in the assay on Staphylococcus aureus [2]; with Staphylococcus aureus [3]; in assay [4]; in assay [5]; in the assay with Staphylococcus aureus [6]; in the assay on Staphylococcus aureus [7]) was above 60% throughout.
